The record followed here is US20250222146A1, “Radiopharmaceuticals Targeting Somatostatin Receptor 2 and Uses Thereof” (RayzeBio, Inc., priority 2023, published 2025).

Numbered stars: 1 amine (or outer) side, 2 acyl side, 3 side chain; on linkers, the order of the positions; unused ones are H or OH. Square brackets hold non-standard residues; d marks the D form. Peptide text beside a SMILES is read from it. * marks the point of attachment. DOTA(Lu)NH(CH2)6NHCOCH2 = O=C(CN1CCN2CCN3CCN(CC1)CC(=O)[O][Lu]([O]C(=O)C2)[O]C(=O)C3)NCCCCCCNC(=O)C*; DOTA(Lu) = O=C1CN2CCN3CCN(CC(=O)*)CCN(CC2)CC(=O)[O][Lu]([O]1)[O]C(=O)C3; Ala(piperidin-4-yl) = O=C([C@H](CC1CCN([*:3])CC1)N[*:1])[*:2]; dTrp(βS-Me) = C[C@@H](c1c[nH]c2ccccc12)[C@@H](N)C(=O)O; Tyr(3,5-F2) = N[C@@H](Cc1cc(F)c(O)c(F)c1)C(=O)O; X19 = O=C([C@H](Cc1c[nH]c2ccncc12)N[*:1])[*:2]; Dip = N[C@H](C(=O)O)C(c1ccccc1)c1ccccc1; mTyr = N[C@@H](Cc1cccc(O)c1)C(=O)O; NMehCys = CN[C@@H](CCS)C(=O)O; NMeK = CN[C@@H](CCCCN)C(=O)O; Ethyl(2-NH2) = NCC*

Chain of SSTR2 (P30874 whole entry): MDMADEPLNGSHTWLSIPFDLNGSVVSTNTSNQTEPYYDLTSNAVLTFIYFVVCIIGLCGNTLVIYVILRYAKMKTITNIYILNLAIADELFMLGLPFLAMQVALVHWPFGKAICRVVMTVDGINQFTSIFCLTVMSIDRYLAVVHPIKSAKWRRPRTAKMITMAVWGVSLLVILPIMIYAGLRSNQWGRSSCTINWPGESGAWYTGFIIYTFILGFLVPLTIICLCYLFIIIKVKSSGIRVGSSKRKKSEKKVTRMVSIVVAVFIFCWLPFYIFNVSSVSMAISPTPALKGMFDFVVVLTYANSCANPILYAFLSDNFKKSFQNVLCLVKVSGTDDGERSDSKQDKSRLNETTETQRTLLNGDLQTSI

One experiment concerns the target SSTR2 (Homo sapiens, UniProt P30874). The experiment can be described thus: SSTR binding affinity by radioligand binding competition assay ([125I]-Tyr11-Somatostatin, membrane extracts). The conditions noted are these: SSTR2 Ki, radioligand competition, [125I]-Tyr11-Somatostatin 0.1 nM, membrane extracts; Ki from IC50 by Cheng Prusoff.
What is called Ki is the dissociation constant of the complex between target and ligand, obtained from inhibition or displacement. `C[C@@H](O)[C@@H]1NC(=O)[C@@H](CCCCN)NC(=O)[C@@H](Cc2c[nH]c3ccccc23)NC(=O)[C@H](Cc2ccc(O)cc2)NC(=O)[C@H](CCSCC(=O)NCCCCCCNC(=O)CN2CCN3CCN4CCN(CC2)CC(=O)[O][Lu]([O]C(=O)C3)[O]C(=O)C4)N(C)C(=O)[C@H](Cc2ccccc2)NC1=O` [RB-0005827] displayed a Ki of 10 to 33.3 nM.
For the compound `C[C@@H](O)[C@@H]1NC(=O)[C@H](CCCCN)NC(=O)[C@H](Cc2c[nH]c3ccccc23)NC(=O)[C@H](Cc2ccc(O)cc2)NC(=O)[C@H](CCSCC(=O)NCCCCCCNC(=O)CN2CCN3CCN4CCN(CC2)CC(=O)[O][Lu]([O]C(=O)C3)[O]C(=O)C4)N(C)C(=O)[C@H](Cc2ccccc2)NC1=O` [RB-0005858], the Ki is 1 to 3.33 nM.
Compound `C[C@@H](O)[C@@H]1NC(=O)[C@H](CCCCN)NC(=O)[C@@H](Cc2c[nH]c3ccccc23)NC(=O)[C@H](Cc2ccc(O)cc2)NC(=O)[C@@H](CCSCC(=O)NCCCCCCNC(=O)CN2CCN3CCN4CCN(CC2)CC(=O)[O][Lu]([O]C(=O)C3)[O]C(=O)C4)N(C)C(=O)[C@H](Cc2ccccc2)NC1=O` [RB-0005866] had a Ki of 1 to 3.33 nM.
Compound `C[C@@H](O)[C@@H]1NC(=O)[C@H](CCCCN)NC(=O)[C@H](Cc2c[nH]c3ccccc23)NC(=O)[C@H](Cc2ccc(O)cc2)NC(=O)[C@H](CCSCC(=O)NCCCCCCNC(=O)CN2CCN3CCN4CCN(CC2)CC(=O)[O][Lu]([O]C(=O)C3)[O]C(=O)C4)N(C)C(=O)[C@H](Cc2ccccc2)NC1=O` [RB-0005905] returned a Ki of less than 1 nM.
The compound `C[C@@H](O)[C@@H]1NC(=O)[C@H](CCCCN)NC(=O)[C@H](Cc2c[nH]c3ccccc23)NC(=O)[C@H](Cc2ccc(O)cc2)NC(=O)[C@H](CCSCC(=O)NCCCCCCNC(=O)CN2CCN3CCN4CCN(CC2)CC(=O)[O][Lu]([O]C(=O)C3)[O]C(=O)C4)N(C)C(=O)[C@H](Cc2ccccc2)NC1=O` [RB-0005907] registered a Ki of 3.33 to 10 nM.

The same experiment, now with this note: radioligand competition, [125I]-Tyr11-Somatostatin 0.1 nM, membrane extracts; Ki from IC50 by Cheng Prusoff; read-out: SSTR2 Ki.
For the compound `C[C@@H](O)[C@@H]1NC(=O)[C@H](CCCCN)NC(=O)[C@@H](Cc2c[nH]c3ccccc23)NC(=O)[C@H](Cc2ccc(O)cc2)NC(=O)[C@H](CNC(=O)[C@H](CC(=O)O)NC(=O)CCCCCNC(=O)CN2CCN3CCN4CCN(CC2)CC(=O)[O][Lu]([O]C(=O)C3)[O]C(=O)C4)N(C)C(=O)[C@H](Cc2ccccc2)NC1=O` [RB-0005730], the Ki was less than 1 nM.
Consider `C[C@@H](O)[C@@H]1NC(=O)[C@H](CCCCN)NC(=O)[C@@H](Cc2c[nH]c3ccccc23)NC(=O)[C@H](Cc2ccc(O)cc2)NC(=O)[C@H](CNC(=O)C[C@H](NC(=O)CCCCCNC(=O)CN2CCN3CCN4CCN(CC2)CC(=O)[O][Lu]([O]C(=O)C3)[O]C(=O)C4)C(=O)O)N(C)C(=O)[C@H](Cc2ccccc2)NC1=O` [RB-0005732], for which the Ki fell in the range of 33.3 to 100 nM.
On to `C[C@@H](O)[C@@H]1NC(=O)[C@H](CCCCN)NC(=O)[C@@H](Cc2c[nH]c3ccccc23)NC(=O)[C@H](Cc2ccc(O)cc2)NC(=O)[C@H](CNC(=O)[C@@H](CC(=O)O)NC(=O)CCCCCNC(=O)CN2CCN3CCN4CCN(CC2)CC(=O)[O][Lu]([O]C(=O)C3)[O]C(=O)C4)N(C)C(=O)[C@H](Cc2ccccc2)NC1=O` [RB-0005734], for which the Ki was in the range of 1 to 3.33 nM.
For the compound `C[C@@H](O)[C@@H]1NC(=O)[C@H](CCCCN)NC(=O)[C@@H](Cc2c[nH]c3ccccc23)NC(=O)[C@H](Cc2ccc(O)cc2)NC(=O)[C@H](CNC(=O)C[C@@H](NC(=O)CCCCCNC(=O)CN2CCN3CCN4CCN(CC2)CC(=O)[O][Lu]([O]C(=O)C3)[O]C(=O)C4)C(=O)O)N(C)C(=O)[C@H](Cc2ccccc2)NC1=O` [RB-0005736], the Ki is 3.33 to 10 nM.
Consider `C[C@@H](O)[C@@H]1NC(=O)[C@H](CCCCN)NC(=O)[C@@H](Cc2c[nH]c3ccccc23)NC(=O)[C@H](Cc2ccc(O)cc2)NC(=O)[C@H](CCSCC(=O)NCCOCCOCCOCCNC(=O)CN2CCN3CCN4CCN(CC2)CC(=O)[O][Lu]([O]C(=O)C3)[O]C(=O)C4)N(C)C(=O)[C@H](COc2ccccc2)NC1=O` [RB-0005738], for which the Ki is less than 1 nM.
On to `C[C@@H](O)[C@@H]1NC(=O)[C@H](CCCCN)NC(=O)[C@@H](Cc2c[nH]c3ccccc23)NC(=O)[C@H](Cc2cc(F)c(O)c(F)c2)NC(=O)[C@H](CCSCC(=O)NCCCCCCNC(=O)CN2CCN3CCN4CCN(CC2)CC(=O)[O][Lu]([O]C(=O)C3)[O]C(=O)C4)N(C)C(=O)[C@H](Cc2ccccc2)NC1=O` [RB-0005740] (cyclo(F[NMehCys](DOTA(Lu)NH(CH2)6NHCOCH2)[Tyr(3,5-F2)][dW]KT)), for which the Ki was less than 1 nM.
As for `C[C@@H]1NC(=O)[C@H](CCCCN)NC(=O)[C@@H](Cc2c[nH]c3ccccc23)NC(=O)[C@H](Cc2ccc(O)cc2)NC(=O)[C@H](CCSCC(=O)NCCCCCCNC(=O)CN2CCN3CCN4CCN(CC2)CC(=O)[O][Lu]([O]C(=O)C3)[O]C(=O)C4)N(C)C(=O)[C@H](Cc2ccccc2)NC1=O` [RB-0005744] (cyclo(AF[NMehCys](DOTA(Lu)NH(CH2)6NHCOCH2)Y[dW]K)), the Ki is less than 1 nM.
Turning to `C[C@@H](O)[C@@H]1NC(=O)[C@H](CC2CCNCC2)NC(=O)[C@@H]([C@@H](C)c2c[nH]c3ccccc23)NC(=O)[C@H](Cc2ccc(O)cc2)NC(=O)[C@H](CCCCNC(=O)CN2CCN3CCN4CCN(CC2)CC(=O)[O][Lu]([O]C(=O)C3)[O]C(=O)C4)N(C)C(=O)[C@H](Cc2ccccc2)NC1=O` [RB-0005797] (cyclo(F[NMeK](DOTA(Lu))Y[dTrp(βS-Me)][Ala(piperidin-4-yl)]T)), the Ki was less than 1 nM.
Turning to `C[C@@H]1NC(=O)[C@H]([C@@H](C)O)NC(=O)[C@H](CC2CCNCC2)NC(=O)[C@@H]([C@@H](C)c2c[nH]c3ccccc23)NC(=O)[C@H](Cc2ccc(O)cc2)NC(=O)[C@H](CCSCC(=O)NCCCCCCNC(=O)CN2CCN3CCN4CCN(CC2)CC(=O)[O][Lu]([O]C(=O)C3)[O]C(=O)C4)N(C)C1=O` [RB-0005807] (cyclo(A[NMehCys](DOTA(Lu)NH(CH2)6NHCOCH2)Y[dTrp(βS-Me)][Ala(piperidin-4-yl)]T)), the Ki was less than 1 nM.
Turning to `C[C@@H]1NC(=O)[C@H]([C@@H](C)O)NC(=O)[C@H](CC2CCNCC2)NC(=O)[C@@H](Cc2c[nH]c3ccccc23)NC(=O)[C@H](C(c2ccccc2)c2ccccc2)NC(=O)[C@H](CCSCC(=O)NCCCCCCNC(=O)CN2CCN3CCN4CCN(CC2)CC(=O)[O][Lu]([O]C(=O)C3)[O]C(=O)C4)N(C)C1=O` [RB-0005809] (cyclo(A[NMehCys](DOTA(Lu)NH(CH2)6NHCOCH2)[Dip][dW][Ala(piperidin-4-yl)]T)), the Ki was 1 to 3.33 nM.
In the case of `C[C@@H](O)[C@@H]1NC(=O)[C@H](CCCCN)NC(=O)[C@@H](Cc2c[nH]c3ccccc23)NC(=O)[C@H](Cc2ccc(O)cc2)NC(=O)[C@H](C2CCN(C(=O)CCCCCNC(=O)CN3CCN4CCN5CCN(CC3)CC(=O)[O][Lu]([O]C(=O)C4)[O]C(=O)C5)CC2)N(C)C(=O)[C@H](Cc2ccccc2)NC1=O` [RB-0005852], the Ki lay in the range of 33.3 to 100 nM.
For the compound `C[C@@H](O)[C@@H]1NC(=O)[C@H](CCCCN)NC(=O)[C@@H](Cc2c[nH]c3ccccc23)NC(=O)[C@H](Cc2ccc(O)cc2)NC(=O)[C@H](CC2CCN(C(=O)CCCCCNC(=O)CN3CCN4CCN5CCN(CC3)CC(=O)[O][Lu]([O]C(=O)C4)[O]C(=O)C5)CC2)N(C)C(=O)[C@H](Cc2ccccc2)NC1=O` [RB-0005854], the Ki was in the range of 10 to 33.3 nM.
For `C[C@@H](O)[C@@H]1NC(=O)[C@H](CCCCN)NC(=O)[C@@H](Cc2c[nH]c3ccccc23)NC(=O)[C@H](Cc2ccc(O)cc2)NC(=O)[C@H](CCSCC(=O)NCCCCCCNC(=O)CN2CCN3CCN4CCN(CC2)CC(=O)[O][Lu]([O]C(=O)C3)[O]C(=O)C4)N(C)C(=O)[C@@H]2CCCN2C1=O` [RB-0005864] (cyclo(KTP[NMehCys](DOTA(Lu)NH(CH2)6NHCOCH2)Y[dW])), the Ki fell in the range of 1 to 3.33 nM.
Regarding `C[C@@H](O)[C@@H]1NC(=O)[C@H](CCCCN)NC(=O)[C@@H](Cc2c[nH]c3ccccc23)NC(=O)[C@H](Cc2ccc(O)cc2)NC(=O)[C@H](CC(=O)NCCCCCCNC(=O)CN2CCN3CCN4CCN(CC2)CC(=O)[O][Lu]([O]C(=O)C3)[O]C(=O)C4)N(C)C(=O)[C@H](Cc2ccccc2)NC1=O` [RB-0005895], the Ki lay in the range of 3.33 to 10 nM.
Regarding `C[C@@H](O)[C@@H]1NC(=O)[C@H](COCCN)NC(=O)[C@@H](Cc2c[nH]c3ccccc23)NC(=O)[C@H](Cc2ccc(O)cc2)NC(=O)[C@H](CCSCC(=O)NCCCCCCNC(=O)CN2CCN3CCN4CCN(CC2)CC(=O)[O][Lu]([O]C(=O)C3)[O]C(=O)C4)N(C)C(=O)[C@H](Cc2ccccc2)NC1=O` [RB-0005899] (cyclo(F[NMehCys](DOTA(Lu)NH(CH2)6NHCOCH2)Y[dW]S(Ethyl(2-NH2))T)), the Ki was less than 1 nM.
For the compound `C[C@@H](O)[C@@H]1NC(=O)[C@H](CCCCN)NC(=O)[C@H](Cc2c[nH]c3ccncc23)NC(=O)[C@H](Cc2ccc(O)cc2)NC(=O)[C@H](CCSCC(=O)NCCCCCCNC(=O)CN2CCN3CCN4CCN(CC2)CC(=O)[O][Lu]([O]C(=O)C3)[O]C(=O)C4)N(C)C(=O)[C@H](Cc2ccccc2)NC1=O` [RB-0005903] (cyclo(F[NMehCys](DOTA(Lu)NH(CH2)6NHCOCH2)Y[X19]KT)), the Ki was less than 1 nM.
Turning to `C[C@@H](O)[C@@H]1NC(=O)[C@H](CC2CCNCC2)NC(=O)[C@@H](Cc2c[nH]c3ccccc23)NC(=O)[C@H](Cc2ccc(O)cc2)NC(=O)[C@H](CCCCNC(=O)CN2CCN3CCN4CCN(CC2)CC(=O)[O][Lu]([O]C(=O)C3)[O]C(=O)C4)N(C)C(=O)[C@H](Cc2ccc(O)cc2)NC1=O` [RB-0005983] (cyclo([NMeK](DOTA(Lu))Y[dW][Ala(piperidin-4-yl)]TY)), the Ki fell in the range of 3.33 to 10 nM.
Consider `C[C@@H](O)[C@@H]1NC(=O)[C@H](CC2CCNCC2)NC(=O)[C@@H](Cc2c[nH]c3ccccc23)NC(=O)[C@H](Cc2ccc(O)cc2)NC(=O)[C@H](CCCCNC(=O)CN2CCN3CCN4CCN(CC2)CC(=O)[O][Lu]([O]C(=O)C3)[O]C(=O)C4)N(C)C(=O)[C@H](Cc2cccc(O)c2)NC1=O` [RB-0005984] (cyclo([NMeK](DOTA(Lu))Y[dW][Ala(piperidin-4-yl)]T[mTyr])), for which the Ki was 1 to 3.33 nM.
